IC50 data for seven molecules are collected here from ChEMBL document CHEMBL1138391, “Syntheses of hydroxy substituted 2-phenyl-naphthalenes as inhibitors of tyrosinase” (Bioorg Med Chem Lett, 2007).

Structures are written as SMILES.

The target of this assay is T1, Tyrosinase (Agaricus bisporus, UniProt O42713).
T1 sequence (O42713 whole entry): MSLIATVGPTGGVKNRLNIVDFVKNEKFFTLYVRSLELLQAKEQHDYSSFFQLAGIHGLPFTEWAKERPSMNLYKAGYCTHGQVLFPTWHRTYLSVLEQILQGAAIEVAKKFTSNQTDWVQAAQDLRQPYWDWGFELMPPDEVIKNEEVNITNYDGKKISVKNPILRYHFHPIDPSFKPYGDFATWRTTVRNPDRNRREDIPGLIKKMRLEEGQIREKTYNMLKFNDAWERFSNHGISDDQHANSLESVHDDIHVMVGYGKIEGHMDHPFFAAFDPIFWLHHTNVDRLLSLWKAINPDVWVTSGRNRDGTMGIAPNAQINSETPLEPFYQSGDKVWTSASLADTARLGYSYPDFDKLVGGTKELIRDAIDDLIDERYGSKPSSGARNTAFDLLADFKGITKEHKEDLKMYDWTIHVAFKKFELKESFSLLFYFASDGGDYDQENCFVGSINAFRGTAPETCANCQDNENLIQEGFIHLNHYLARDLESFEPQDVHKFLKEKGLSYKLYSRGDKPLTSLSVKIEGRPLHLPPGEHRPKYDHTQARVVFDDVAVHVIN
Description: Inhibition of mushroom tyrosinase
For the molecule `Oc1cccc(-c2ccc3cc(O)ccc3c2)c1`, 6.4 µM corresponded to half-maximal inhibition (IC50).

Regarding `Oc1cc(O)cc(-c2ccc3cc(O)ccc3c2)c1`, the IC50 was found to be 16.5 µM. Compared with the last molecule, the IC50 is about 2.6-fold higher.

In turn, `Oc1ccc2cc(-c3cc(O)c(O)c(O)c3)ccc2c1` returned an IC50 of 2.95 µM.

Consider `Oc1ccc(-c2ccc3cc(O)ccc3c2)c(O)c1`, for which the IC50 is 0.034 µM.

Consider `Oc1cc(O)cc(-c2ccc3cc(O)cc(O)c3c2)c1`, for which half-maximal inhibition (IC50) was put at 0.49 µM.

On to `Oc1ccc(O)cc1` [HYDROQUINONE], for which the IC50 came out at 33.5 µM.

In turn, `Oc1ccc(/C=C/c2cc(O)cc(O)c2)cc1` [RESVERATROL] came in with an IC50 of 55.6 µM. Compared with the last molecule, the IC50 is about 1.7-fold higher.

As usually defined, the IC50 is the point on the concentration scale where inhibition reaches its midpoint. A low value points to inhibition by little substance.
